The structures appear in SMILES notation. Calls of active or inactive are those of the source. No cut-off for these calls is given here.

Series [1] addresses T1, Nuclear receptor ROR-beta (Homo sapiens) (UniProt Q92753).
T1 sequence (whole entry): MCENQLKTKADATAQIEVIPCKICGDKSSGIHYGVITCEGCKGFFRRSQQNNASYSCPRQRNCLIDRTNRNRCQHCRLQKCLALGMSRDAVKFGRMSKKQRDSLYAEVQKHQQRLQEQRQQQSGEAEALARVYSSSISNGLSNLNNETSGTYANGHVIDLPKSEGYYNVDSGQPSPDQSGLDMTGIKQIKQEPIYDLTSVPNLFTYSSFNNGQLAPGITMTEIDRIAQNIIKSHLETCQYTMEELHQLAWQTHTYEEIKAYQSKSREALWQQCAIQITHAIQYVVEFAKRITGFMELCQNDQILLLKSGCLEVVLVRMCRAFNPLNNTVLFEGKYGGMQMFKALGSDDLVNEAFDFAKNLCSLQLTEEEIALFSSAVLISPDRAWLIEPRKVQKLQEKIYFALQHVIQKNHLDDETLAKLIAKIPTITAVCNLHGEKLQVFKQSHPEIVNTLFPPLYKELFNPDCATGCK
The experiment in a line: Inverse agonist activity at human full-length RORbeta expressed in Jurkat cells co-transfected with 5 copies of ROR response element after 18 hrs by luciferase based reporter gene assay. It counts as cell-based.

Series [2] has as its target T2, Nuclear receptor ROR-alpha (Homo sapiens) (UniProt P35398).
T2 sequence (whole entry): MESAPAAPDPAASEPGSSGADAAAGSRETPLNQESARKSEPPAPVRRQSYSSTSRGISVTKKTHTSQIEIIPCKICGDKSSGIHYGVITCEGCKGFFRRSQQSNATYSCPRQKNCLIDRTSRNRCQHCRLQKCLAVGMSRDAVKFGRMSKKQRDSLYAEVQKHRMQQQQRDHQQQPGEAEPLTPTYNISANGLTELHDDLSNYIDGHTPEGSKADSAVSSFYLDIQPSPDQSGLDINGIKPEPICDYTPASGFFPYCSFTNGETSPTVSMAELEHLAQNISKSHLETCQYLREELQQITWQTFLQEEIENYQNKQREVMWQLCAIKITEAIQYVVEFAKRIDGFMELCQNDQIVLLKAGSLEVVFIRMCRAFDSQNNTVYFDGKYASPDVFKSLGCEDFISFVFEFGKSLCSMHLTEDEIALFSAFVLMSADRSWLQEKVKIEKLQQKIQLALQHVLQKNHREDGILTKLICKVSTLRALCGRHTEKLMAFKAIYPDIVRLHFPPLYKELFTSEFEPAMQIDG
In words: Inverse agonist activity at human full-length RORalpha expressed in Jurkat cells co-transfected with 5 copies of ROR response element after 18 hrs by luciferase based reporter gene assay. It counts as cell-based.

Series [3] in a line: Cytotoxicity against human CD4-positive T cells assessed as reduction in cell viability at 100 nM. The conditions noted are these: 0.1 µM. It counts as cell-based.
Series [4] deals with Mus musculus. In words: Antiarthritic activity in collagen/complete freund's adjuvant-induced DBA/1 mouse model of arthritis assessed as reduction in clinical score at 3 mg/kg/day, po administered via gavage starting from 21 day post collagen/CFA challenge and measured up to 42 days. Format: functional, organism-based.
Series [5] deals with Mus musculus. In words: Antiarthritic activity in collagen/complete freund's adjuvant-induced DBA/1 mouse model of arthritis assessed as reduction in paw thickness at 3 mg/kg/day, po administered via gavage starting from 21 day post collagen/CFA challenge and measured up to 42 days. Format: functional, organism-based.

Consider `CCC[C@H]1C(=O)C(C#N)=C[C@@]2(C)c3nc(-c4ccnc(C5CC5)c4)nc(-c4ccccc4F)c3CC[C@H]12`, for which the result in series [1] and in series [2] was inactive.

Turning to `Cc1cc(-c2nc(-c3ccc(F)cc3)c3c(n2)[C@]2(C)C=C(C#N)C(=O)[C@H](C)[C@H]2CC3)ccn1`, the outcome in series [1] and in series [2] was inactive. In series [3], the Activity fell in the range of 10 to 15%. Also, the outcome in the series on Mus musculus [4] and with Mus musculus [5] was Active.

For the origin of these results see ChEMBL document CHEMBL4627267, “A novel series of cysteine-dependent, allosteric inverse agonists of the nuclear receptor RORγt” (Bioorg Med Chem Lett, 2020).
